According to paper PMC11484510, “Antibacterial activity of structurally diverse natural prenylated isobavachalcone derivatives” (RSC Advances, 2024):
Values after ≈ are worked out from the molar mass of the structure shown. “Also recorded” adds a separate entry of the source. Where two headings read alike, the source gives them in different places.

Key:
MRSA ATCC 15187 = assay: MIC, broth microdilution (CLSI), Alamar blue; type: cell-based, Methicillin-resistant S. aureus; conditions: read-out: Minimum inhibitory concentration (MIC) MRSA
Description: (§1) The bacterial strains S. aureus ATCC 29213, MRSA ATCC 15187, E. coli ATCC 25922, and P. aeruginosa ATCC 27853 were obtained from ATCC (American Type Culture Collection). Cation-adjusted Mueller–Hinton broth (MHB; Becton–Dickinson, Cockeysville, MD) was used to determine the minimum inhibitory concentration (MIC). Mueller–Hinton agar (MHA; Becton–Dickinson) was used for minimum bactericidal concentration (MBC) studies. Alamar blue (Himedia) was used to detect the MIC value.
(§2) The antibacterial activity of the compounds against S. aureus ATCC 29213, MRSA ATCC 15187, E. coli ATCC 25922, and P. aeruginosa ATCC 27853 was determined through a broth microdilution method according to the guidelines of the Clinical and Laboratory Standards Institute (CLSI).[50] […] Growth control and media control were employed along with 2% DMSO as vehicle control.
(§3) In a 96-well flat bottom plate, the test compounds were two-fold serially diluted in Mueller Hinton Broth (MHB). The final concentrations of the compounds ranged from 100 to 0.08 μM. 100 μL of standardized bacterial inoculum with turbidity equivalent to 0.5 McFarland standard (1.5 × 10^8 CFU mL^−1) was diluted 1 : 100 (1.5 × 10^6 CFU mL^−1) in Mueller Hinton Broth and inoculated in the plates.[51] The plates were incubated for 24 hours at 37 °C. After incubation, 10 μL of freshly prepared Alamar blue (Himedia) was added to each well of the plate, and plates were further incubated at 37 °C for 30 minutes. After incubation, the fluorescence was measured at excitation/emission of 540–570/580–610 nm. The percentage inhibition and viability were calculated for the controls, and the Gompertz curve was utilized to estimate the minimum inhibitory concentration.

E. coli ATCC 25922 = assay: MIC, broth microdilution (CLSI), Alamar blue; type: cell-based; conditions: E. coli ATCC 25922, 24 hours at 37 °C, read-out: Minimum inhibitory concentration (MIC) E. coli
Description: as §1, §2, §3

P. aeruginosa ATCC 27853 [1] = assay: MIC, broth microdilution (CLSI), Alamar blue; type: cell-based; conditions: P. aeruginosa ATCC 27853, 24 hours at 37 °C, read-out: Minimum inhibitory concentration (MIC) P. aeruginosa
Description: as §1, §2, §3

S. aureus ATCC 29213 [2] = assay: MIC, broth microdilution (CLSI), Alamar blue; type: cell-based; conditions: S. aureus ATCC 29213, 24 hours at 37 °C, read-out: Minimum inhibitory concentration (MIC) S. aureus
Description: as §1, §2, §3

P. aeruginosa ATCC 27853 [3] = assay: MBC, plating on MHA; type: cell-based; conditions: Pseudomonas aeruginosa, ATCC27853; more than 99.9% of the cells killed; read-out: Minimum bactericidal concentration (MBC) P. aeruginosa
Description: as §1
(§4) MBC is defined as the lowest concentration of the compound at which more than 99.9% of the cells were killed compared with the growth control. The minimum compound concentration at which no visible bacterial growth was observed was taken as the Minimum Bactericidal Concentration (MBC).[50]

S. aureus ATCC 29213 [4] = assay: MBC, plating on MHA; type: cell-based; conditions: Staphylococcus aureus, ATCC29213; more than 99.9% of the cells killed; read-out: Minimum bactericidal concentration (MBC) S. aureus
Description: as §1, §4

[5] = Cell viability assay (MTT); type: cell-based, murine; conditions: mouse, RAW 264.7 macrophage cells; RAW 264.7 macrophage cell line, MTT assay
Procedure: (§5) RAW 264.7 cells were acquired from the American type culture collection (ATCC, Manassas, VA) and cultured in Dulbecco's modified eagle's medium (DMEM, Gibco, Life Technologies, NY) supplemented with 10% fetal bovine serum (FBS) at 37 °C and 5% CO2. MTT dye (Himedia) was used to detect CC50 values. The antibiotics ciprofloxacin hydrochloride monohydrate (Himedia), kanamycin sulfate (Himedia), and vancomycin (Himedia) were used for reference in microbiological assays.
(§6) The effect of compounds (IBC, IBC-2, and IBC-3) on the viability of cells was evaluated at different concentrations against macrophage cell lines through the 3-(4,5-dimethylthiazol2-yl)-2, 5-diphenyltetrazolium bromide (MTT) assay. The RAW 264.7 cells are monocyte/macrophage-like cells originating from an Abelson leukemia virus-transformed cell line derived from BALB/c mice. Due to their reliability and consistency, these cell lines are widely utilized for both in vitro and in vivo analyses.[52] The MTT assay is a colorimetric assay used to measure the viability and cytotoxicity of cells. The cells (2 × 10^4 cells per well) were grown at 37 °C with 5% CO2 for 48 hours, then exposed to compounds with different concentrations. […] After 20–21 hours, 20 μL of MTT dye at 2.5 mg mL^−1 concentration was added to each well and incubated for 4 hours. 100 μL DMSO solubilized the water-insoluble purple and white formazan produced.[53] The formation of the formazan salt by mitochondrial dehydrogenases was measured at 570.0 nm after incubating for 20 min. The percentage cytotoxicity was calculated with respect to the untreated cells, and the CC50 value was calculated. CC50 was defined as the concentration of an inhibitor that reduces cellular activities by 50% compared to untreated control cultures. The CC50 values were calculated as the concentration where the absorbance was reduced by 50% using GraphPad Prism software.[54] The selectivity index (SI) determines the safety profile of the compound. It is calculated as the ratio of compound concentration at which 50% of cell growth is inhibited compared to untreated cells (CC50) to the effective inhibiting concentration against bacterial strain (MIC). The high SI (>10 fold of MIC) of a drug is proven to have a favorable safety profile.[28] Selectivity index (SI) = CC50 of the compound (μM)/MIC of the compound (μM).

[6] = tested on: RAW 264.7 macrophage cell line; assay: Cell viability assay (MTT); type: cell-based, murine; conditions: CC50 (RAW 264.7)/MIC with respect to S. aureus
Procedure: as §5, §6

S. aureus ATCC 29213 [7] = assay: Time-kill assay; type: cell-based; conditions: for Time-kill profile: MIC, 2× MIC, 4× MIC, 1 h to 24 h, 37 °C
S. aureus [8] = assay: Combinational study (checkerboard microdilution) with standard drugs; type: cell-based; conditions: for MIC: Staphylococcus aureus, read-out: MIC alone
Procedure: The Fractional Inhibitory Concentration Index (FICI) was calculated for each test compound and reference drug to find the combinational effect.
In a 96-well flat bottom plate, the reference drug with 4× MIC was serially diluted horizontally. The test compounds with 4× MIC were serially diluted two-fold outside the plate in 1.5 mL Eppendorf's using Mueller Hinton Broth (MHB). These two serially diluted compounds were combined to create drug-compound combinations in the plate. The reference drug (horizontally) and tested compounds (vertically) alone were serially diluted for MIC determination. 100 μL of the standardized bacterial inoculum with a turbidity equivalent to a 0.5 McFarland standard were diluted 1 : 100 in Mueller Hinton Broth and inoculated in the plates. The plates were incubated for 24 hours at 37 °C. After incubation, 10 μL of freshly prepared Alamar blue (Himedia) was added to each well of the plate, and the plates were further incubated at 37 °C for 30 minutes. After incubation, the plates were visually observed. […] The FICI was calculated using the formula FICI = FIC of compound + FIC of drug. The calculation followed is FICI (CA/(MICA)) + (CB/(MICB)), where CA is the MIC of the compound in combination, CB is the MIC of the drug in combination, and MICA and MICB are the MIC values of individual compounds and drugs, respectively. The range selection followed the interpretation criteria. The FICI range of 0.5 to 4 indicates indifference, ≤ or =0.5 indicates synergy and >4 indicates antagonism.[57]

S. aureus [9] = assay: Cell integrity analysis by PI staining; type: cell-based; conditions: drug control at 1× MIC, 30 minutes
Procedure: Propidium iodide (PI) indicates cell integrity, emitting a red fluorescence signal. PI's polar and hydrophilic nature impedes its entrance within active bacterial cells, but within perforated dead cells, it can easily bind to nucleic acid (DNA/RNA).[32,60]S. aureus bacterial cells were incubated overnight at 37 °C and diluted further 1 : 100 in Mueller Hinton Broth (MHB). The diluted culture was grown until its OD600 reached 0.5. […] Vancomycin was used as a drug control at 1× MIC, while untreated bacterial cells were used as growth control. The samples were centrifuged at 5000 rpm speed at 4 °C temperature for 10 minutes, and the pellet was washed two times using phosphate-buffered saline pH-7.4 (PBS). To stain the sample (dead cells), 3 μL PI of 20.0 mM concentration was added to the 1 mL solution (pellet resuspended in PBS) and incubated for 15 minutes. To remove the dye, the samples were centrifuged again and washed with PBS once. The final pellet was resuspended in 1 mL of PBS, and 30 μL of each undiluted sample was used to obtain fluorescence imaging. The cells were observed under fluorescence microscopy.[61]

[10] = MRSA ATCC 15187, 24 hours at 37 °C
[11] = Staphylococcus aureus, MRSA ATCC 15187, 24 hours at 37 °C
[12] = Pseudomonas aeruginosa, ATCC27853, 24 h
[13] = Staphylococcus aureus, ATCC29213
[14] = MIC of the compound in combination with ciprofloxacin, S. aureus
[15] = MIC of the compound in combination with vancomycin, S. aureus
[16] = checkerboard, S. aureus, substance alone
[17] = compound with ciprofloxacin, S. aureus
[18] = compound with vancomycin, S. aureus

Row | MIC (MRSA ATCC 15187; [10]) | MIC (MRSA ATCC 15187; [11]) | MIC (E. coli ATCC 25922) | MIC (E. coli ATCC 25922; Escherichia coli, ATCC25922) | MIC (P. aeruginosa ATCC 27853 [1]; [12]) | MIC (S. aureus ATCC 29213 [2]) | MIC (S. aureus ATCC 29213 [2]; [13]) | MIC combination (compound) (S. aureus [8]; [14]) | MIC combination (compound) (S. aureus [8]; [15]) | MIC (S. aureus [8]; [16]) | SMILES | MBC (P. aeruginosa ATCC 27853 [3]) | MBC (S. aureus ATCC 29213 [4]) | CC50 [5] | Time-kill profile (S. aureus ATCC 29213 [7]) | Outcome of combination (S. aureus [8]; [17]) | ∑ FICI (S. aureus [8]; [17]) | Outcome of combination (S. aureus [8]; [18]) | ∑ FICI (S. aureus [8]; [18]) | other results
1 | >100 µM | > 100 µM | >100 µM | > 100 µM | 24 µM (≈ 7.79 µg/mL) | 5 µM (≈ 1.62 µg/mL) | 5 µM (≈ 1.62 µg/mL) | 5 µM | 2.5 µM | 5 µM | CC(C)=CCc1c(O)ccc(C(=O)/C=C/c2ccc(O)cc2)c1O [IBC, (E)-1-(2,4-dihydroxy-3-(3-methylbut-2-en-1-yl)phenyl)-3-(4-hydroxyphenyl) prop-2-en-1-one] | 25 µM (≈ 8.11 µg/mL) | 6.25 µM (≈ 2.03 µg/mL) | 94 µM | after 24 hours, an increase in CFU was observed; also recorded: concentration-dependent killing till 9 h | Indifference (The FICI range of 0.5 to 4 indicates indifference) | 1.25 | Indifference (The FICI range of 0.5 to 4 indicates indifference) | 0.99 | Selectivity index (SI) [6]: 19
2 | >100 µM | > 100 µM | >100 µM | > 100 µM | 24 µM (≈ 7.79 µg/mL) | 5 µM (≈ 1.62 µg/mL) | 5 µM (≈ 1.62 µg/mL) | 0.625 µM | 5 µM | 5 µM | CC1(C)CCc2c(ccc3c2OC(c2ccc(O)cc2)CC3=O)O1 (stereo not drawn) [IBC-2, 2-(4-hydroxyphenyl)-8,8-dimethyl-2,3,9,10-tetrahydro-4H,8H-pyrano[2,3-f]chromen-4-one] | 50 µM (≈ 16.2 µg/mL) | 12.5 µM (≈ 4.05 µg/mL) | 115 µM | concentration-dependent killing effect; also recorded: concentration and time-dependent killing effects | Indifference (The FICI range of 0.5 to 4 indicates indifference) | 0.625 | Indifference (The FICI range of 0.5 to 4 indicates indifference) | 2 | MIC (P. aeruginosa ATCC 27853 [1]): 22 µM (≈ 7.14 µg/mL); CFU count of S. aureus ATCC 29213 in time-kill study (S. aureus ATCC 29213 [7]; 2× MIC and 4× MIC, with increasing time (up to 24 h)): below the detection limit
3 |  |  |  |  |  |  |  |  |  |  | CN[C@H](CC(C)C)C(=O)N[C@H]1C(=O)N[C@@H](CC(N)=O)C(=O)N[C@H]2C(=O)N[C@H]3C(=O)N[C@H](C(=O)N[C@H](C(=O)O)c4cc(O)cc(O)c4-c4cc3ccc4O)[C@H](O)c3ccc(c(Cl)c3)Oc3cc2cc(c3O[C@@H]2O[C@H](CO)[C@@H](O)[C@H](O)[C@H]2O[C@H]2C[C@](C)(N)[C@H](O)[C@H](C)O2)Oc2ccc(cc2Cl)[C@H]1O [Vancomycin, vancomycin, reference compound] |  |  |  |  |  |  |  |  | MIC (MRSA ATCC 15187; Staphylococcus aureus, 24 h): 0.7 µM (≈ 1.01 µg/mL); MIC combination (drug) (S. aureus [8]; MIC of vancomycin in combination with IBC, S. aureus): 0.39 µM; MIC combination (drug) (S. aureus [8]; MIC of vancomycin in combination with IBC-2, S. aureus): 0.78 µM; MIC combination (drug) (S. aureus [8]; MIC of vancomycin in combination with IBC-3, S. aureus): 0.02 µM; MIC (S. aureus [8]): 0.78 µM; PI red fluorescence (cell integrity) (S. aureus [9]): higher number of dead cells emitting red fluorescence
